Reference: publication PMC3820767, “Turning Defense into Offense: Defensin Mimetics as Novel Antibiotics Targeting Lipid II” (PLoS Pathogens, 2013)
pIC50: −log10 of the molar value. Like-named read-outs stand apart in the source and are kept apart here.

Experiments:
[1] = test system: Staphylococcus aureus ATCC 29213; test: Antibacterial killing, 96-well turbidimetric (modified vCC) assay; type: cell-based; settings: Table S3; concentration at which 100% killing occurred, no bacterial regrowth; No = not active
Experimental: (§1) The antibacterial activity of defensin mimetics against Staphylococcus aureus ATCC 29213 and Escherichia coli 25922 was carried out in a 96-well turbidimetric assay essentially as described previously with the following modifications: bacteria were exposed for 30 min to compounds in 10 mM phosphate buffer containing 5% DMSO prior to addition of 2× Muller-Hinton medium. Bacterial growth was monitored for 12 hours and data were analyzed as described. Determination of MICs was performed by Micromyx, LLC (Kalamazoo, Michigan) according to CLSI standards.

[2] = test system: Escherichia coli ATCC 25922; test: as above; type: cell-based; settings: Table S3; concentration at which 100% killing occurred, no bacterial regrowth; No = not active
Experimental: as §1

[3] = Surface Plasmon Resonance binding to immobilized 3-Lipid II; settings: Table S3; SPR, initial determination at 10 µM
Experimental: Surface Plasmon Resonance binding experiments were carried out on a BIAcore T100 system (BIAcore Inc., Piscataway, NY) at 25°C. The assay buffer was 10 mM HEPES, 150 mM NaCl, 0.05% surfactant P20, pH 7.4 (±3 mM EDTA) supplemented with 10% DMSO. […] For initial determination of binding, defensin mimetics were introduced into the flow-cells (30 µl/min) in the running buffer at 10 µM. Resonance signals were corrected for nonspecific binding by subtracting the background of the control flow-cell. After each analysis, the sensor chip surfaces were regenerated with 50 mM NaOH for 30 s at a flow rate 100 µl/min, and equilibrated with the buffer prior to next injection. For binding kinetics studies, binding isotherms were analyzed with manufacturer-supplied software for BIAcore T100.

Caco-2 = test: Cytotoxicity by MTT assay; type: cell-based, human

Structure (SMILES)	active against S.aureus (IC100%) [1]	active against E.coli (IC100%) [2]	Binding on Lipid II? [3]	cytotoxic for Caco II (C50% survival) (Caco-2)	pIC50 (Caco-2)	cytotoxic for Caco II (C50% survival) (Caco-2; Table S3, No = not cytotoxic)	pIC50 (Caco-2; Table S3, No = not cytotoxic, read-out: cytotoxic for Caco II (C50% survival))
C(#Cc1ccccc1)CN(CC#Cc1ccccc1)CCCCCCN(CC#Cc1ccccc1)CC#Cc1ccccc1.Cl.Cl [Compound 5230300, N,N,N',N'-tetrakis(3-phenyl-2-propyn-1-yl)-1,6-hexanediamine dihydrochloride]	No	No	No	No			
CCCCN(CC#Cc1ccc(C#CCN(CCCC)CCCC)cc1)CCCC.Cl.Cl [Compound 5230313, 3,3'-(1,4-phenylene)bis(N,N-dibutyl-2-propyn-1-amine) dihydrochloride]	No	No	Yes		3.44		
Fc1ccc(N2CCN(Cc3ccc(-c4ccccc4)cc3)CC2)cc1 [Compound 5267798, 1-(4-biphenylylmethyl)-4-(4-fluorophenyl)piperazine]	No	No	No	No			
Clc1ccc(N2CCN(Cc3ccc(-c4ccccc4)cc3)CC2)cc1 [Compound 5270046, 1-(4-biphenylylmethyl)-4-(4-chlorophenyl)piperazine]	No	No	No	No			
FC(F)(F)c1cccc(N2CCN(Cc3ccc4c(c3)Cc3ccccc3-4)CC2)c1 [Compound 5418391, 1-(9H-fluoren-2-ylmethyl)-4-[3-(trifluoromethyl)phenyl]piperazine]	No	No	No		3.80		
FC(F)(F)c1cccc(N2CCN(CCc3ccccc3)CC2)c1 [Compound 5422765, 1-(2-phenylethyl)-4-[3-(trifluoromethyl)phenyl]piperazine]	No	No	Yes		3.89		
CCN(CC)c1ccc(CN2CCN(c3cccc(C(F)(F)F)c3)CC2)cc1 [Compound 5427129, N,N-diethyl-4-({4-[3-(trifluoromethyl)phenyl]-1-piperazinyl}methyl)aniline]	(No)	No	Yes		3.72		
CN(C)c1ccc(C=CCN2CCN(Cc3ccccc3)CC2)cc1 [Compound 5429346, 4-[3-(4-benzyl-1-piperazinyl)-1-propen-1-yl]-N,N-dimethylaniline]	500 µM	No	Yes		3.88		
CCCN1CCC(NCc2cccc(C(F)(F)F)c2)CC1 [Compound 5452876, 1-propyl-N-[3-(trifluoromethyl)benzyl]-4-piperidinamine]	No	No	No	No			
Fc1ccc(N2CCN(C3CCN(Cc4ccccc4)CC3)CC2)cc1 [Compound 5457685, 1-(1-benzyl-4-piperidinyl)-4-(4-fluorophenyl)piperazine]	No	No	No	No			
CC(CCc1ccc(O)cc1)NCCc1ccccc1 (stereo not drawn) [Compound 5460400, 4-{3-[(2-phenylethyl)amino]butyl}phenol]	No	No	No			No	
CC[n+]1c(/C=C/C=C2\N(C)c3ccccc3C2(C)C)sc2ccccc21.[O-][Cl+3]([O-])([O-])[O-] [Compound 5660386, 3-ethyl-2-[(1E)-3-[(2Z)-1,3,3-trimethyl-2,3-dihydro-1H-indol-2-ylidene]prop-1-en-1-yl]-1,3-benzothiazol-3-ium perchlorate]	7,8 µM	125 µM	No				5.25
Cc1ccc(CN2CCC(N3CCN(c4ccccc4F)CC3)CC2)cc1 [Compound 6711103, 1-(2-fluorophenyl)-4-[1-(4-methylbenzyl)-4-piperidinyl]piperazine]	No	No	No	No			
O=C(O)C(=O)O.c1ccc(CCCN2CCC(N3CCN(c4ccccc4)CC3)CC2)cc1 [Compound 6785396, 1-phenyl-4-[1-(3-phenylpropyl)-4-piperidinyl]piperazine oxalate]	No	No	No		3.77		
CC(C)(O)C#Cc1ccc(C#Cc2ccc(C#CC(C)(C)O)cc2)cc1 [Compound 7191067, 4,4'-(1,2-ethynediyldi-4,1-phenylene)bis(2-methyl-3-butyn-2-ol)]	No	No	No	No			
Cc1ccc(CN2C(=O)c3ccccc3C2(O)Cc2ccccc2)cc1 (stereo not drawn) [Compound 7832238, 3-benzyl-3-hydroxy-2-[(4-methylphenyl)methyl]-2,3-dihydro-1H-isoindol-1-one]	No	No	No	No			
CC(C)CCCC(C)C1CCC2C3CC=C4CC(O)CCC4(C)C3CCC12C (stereo not drawn) [Compound N050-0022, 2,15-dimethyl-14-(6-methylheptan-2-yl)tetracyclo[8.7.0.0^{2,7}.0^{11,15}]heptadec-7-en-5-ol]	No	No	No		3.91		
O=C(CSc1nc(-c2ccccc2)c(-c2ccccc2)n1-c1ccccc1)N1CCCc2ccccc21 [ST4098270, 1-(1,2,3,4-tetrahydroquinolin-1-yl)-2-[(1,4,5-triphenyl-1H-imidazol-2-yl)sulfanyl]ethan-1-one]	No	No	No	No			
CCN1/C(=C\C=C\c2sc3c4ccccc4[se]c3[n+]2CC)Sc2c1[se]c1ccccc21 [STK368153, 3-ethyl-2-[(1E,3E)-3-(3-ethyl[1]benzoselenopheno[2,3-d][1,3]thiazol-2(3H)-ylidene)prop-1-en-1-yl][1]benzoselenopheno[2,3-d][1,3]thiazol-3-ium]	7,8 µM	7,8 µM	Yes		5.02		
CCn1c2ccccc2c2cc(N/C=C(\C#N)c3nc(-c4ccc(C)cc4C)cs3)ccc21 [STK537076, (2E)-2-[4-(2,4-dimethylphenyl)-1,3-thiazol-2-yl]-3-[(9-ethyl-9H-carbazol-3-yl)amino]prop-2-enenitrile]	No	No	No		3.62		
CCN1/C(=C/C=C/C=C/C2=CC(=C/c3sc4ccccc4[n+]3CC)/CC(C)(C)C2)Sc2ccccc21 [STK792971, 3-ethyl-2-[(E)-{3-[(1E,3E,5Z)-5-(3-ethyl-1,3-benzothiazol-2(3H)-ylidene)penta-1,3-dien-1-yl]-5,5-dimethylcyclohex-2-en-1-ylidene}methyl]-1,3-benzothiazol-3-ium]	62,5 µM	No	No	No			
CC[n+]1c(/C=C/C=C/N(C(C)=O)c2ccccc2)sc2cc(OC)ccc21 [STK874226, 2-{(1E,3E)-4-[acetyl(phenyl)amino]buta-1,3-dien-1-yl}-3-ethyl-6-methoxy-1,3-benzothiazol-3-ium]	125 µM	250 µM	No	No			
COc1ccc(-c2cn(CC(=O)N(c3ccccc3)C(C)C)c3[n+]2CCC3)cc1 [STL050072, 3-(4-methoxyphenyl)-1-{2-oxo-2-[phenyl(propan-2-yl)amino]ethyl}-1,5,6,7-tetrahydropyrrolo[1,2-a]imidazol-4-ium]	No	No	No		3.47		
CN1CCC(N(Cc2ccccc2)C(=O)CCc2ccc3c(c2)n(C)c(=O)n3C)CC1 [SYN22879441, N-Benzyl-3-(1,3-dimethyl-2-oxo-2,3-dihydro-1H-benzoimidazol-5-yl)-N-(1-methyl-piperidin-4-yl)-propionamide]	No	No	No	No			
